# According to ChEMBL document CHEMBL3885861, “Open TG-GATES”:
# Species on record: Rattus norvegicus
# Assay: Open TG-GATES - Regimen: Daily Repeat
# Assay type: toxicity, organism-based, Sprague-Dawley
# Design: regimen Daily Repeat, gender Male, age 6 weeks
# Conditions: in vivo, po, 1000 mg/kg, route gavage, dose level High; for APTT / Bas / Eos / Fbg / Hb / Ht / Lym / MCH / MCHC / MCV / Mono / Neu / PT / Plat / RBC / Ret / WBC: tissue Blood; for KIDNEY_L / KIDNEY_R / KIDNEY_TOTAL: tissue Kidney; for LIVER: tissue Liver; for A/G / ALP / ALT / AST / BUN / CRE / Ca / Cl / DBIL / GLC / IP / K / LDH / Na / PL / RALB / TBIL / TC / TG / TP / gamma-GTP: tissue Plasma
smiles,measurement,setting,value
CN/C(=N/CCSCc1nc[nH]c1C)NC#N [CIMETIDINE],TERMINAL_BW,"72 h, time 3 day",228.7 g
same,APTT,"72 h, time 3 day",18.9 s
same,Bas,"72 h, time 3 day",0%
same,Eos,"72 h, time 3 day",1%
same,Fbg,"72 h, time 3 day",228.6 mg/dL
same,Hb,"72 h, time 3 day",13.1 g/dL
same,Ht,"72 h, time 3 day",38.7%
same,Lym,"72 h, time 3 day",80.8%
same,MCH,"72 h, time 3 day",21.1 pg
same,MCHC,"72 h, time 3 day",33.8%
same,MCV,"72 h, time 3 day",62.3 fL
same,Mono,"72 h, time 3 day",2.6%
same,Neu,"72 h, time 3 day",14.8%
same,PT,"72 h, time 3 day",12.7 s
same,Plat,"72 h, time 3 day",135 x10_4/uL
same,RBC,"72 h, time 3 day",620.4 x10_4/ul
same,Ret,"72 h, time 3 day",5.4%
same,WBC,"72 h, time 3 day",96.4 x10_2/uL
same,KIDNEY_L,"72 h, time 3 day",1 g
same,KIDNEY_R,"72 h, time 3 day",1 g
same,KIDNEY_TOTAL,"72 h, time 3 day",2 g
same,LIVER,"72 h, time 3 day",11.5 g
same,A/G,"72 h, time 3 day",1.6
same,ALP,"72 h, time 3 day",1004 IU/L
same,ALT,"72 h, time 3 day",40 IU/L
same,AST,"72 h, time 3 day",74 IU/L
same,BUN,"72 h, time 3 day",16.2 mg/dL
same,CRE,"72 h, time 3 day",0.4 mg/dL
same,Ca,"72 h, time 3 day",11 mg/dL
same,Cl,"72 h, time 3 day",102.8 meq/L
same,DBIL,"72 h, time 3 day",0.1 mg/dL
same,GLC,"72 h, time 3 day",201.6 mg/dL
same,IP,"72 h, time 3 day",7 mg/dL
same,K,"72 h, time 3 day",3.8 meq/L
same,LDH,"72 h, time 3 day",190.8 IU/L
same,Na,"72 h, time 3 day",140.8 meq/L
same,PL,"72 h, time 3 day",156.6 mg/dL
same,RALB,"72 h, time 3 day",3.4 g/dL
same,TBIL,"72 h, time 3 day",0.2 mg/dL
same,TC,"72 h, time 3 day",79.8 mg/dL
same,TG,"72 h, time 3 day",118.6 mg/dL
same,TP,"72 h, time 3 day",5.5 g/dL
same,gamma-GTP,"72 h, time 3 day",1.2 IU/L
same,TERMINAL_BW,"[…], time 7 day",263.6 g
same,TERMINAL_BW,"[…], time 14 day",302.5 g
same,TERMINAL_BW,"[…], time 28 day",396.8 g
same,APTT,"[…], time 7 day",16.9 s
same,Bas,"[…], time 7 day",0%
same,Eos,"[…], time 7 day",1%
same,Fbg,"[…], time 7 day",235.6 mg/dL
same,Hb,"[…], time 7 day",13.6 g/dL
same,Ht,"[…], time 7 day",40.7%
same,Lym,"[…], time 7 day",81%
same,MCH,"[…], time 7 day",21.1 pg
same,MCHC,"[…], time 7 day",33.5%
same,MCV,"[…], time 7 day",62.9 fL
same,Mono,"[…], time 7 day",2.6%
same,Neu,"[…], time 7 day",14.4%
same,PT,"[…], time 7 day",12.6 s
same,Plat,"[…], time 7 day",121.2 x10_4/uL
same,RBC,"[…], time 7 day",646.4 x10_4/ul
same,Ret,"[…], time 7 day",5%
same,WBC,"[…], time 7 day",94.8 x10_2/uL
same,APTT,"[…], time 14 day",20.1 s
same,Bas,"[…], time 14 day",0%
same,Eos,"[…], time 14 day",1%
same,Fbg,"[…], time 14 day",225.8 mg/dL
same,Hb,"[…], time 14 day",14.2 g/dL
same,Ht,"[…], time 14 day",43.3%
same,Lym,"[…], time 14 day",80.8%
same,MCH,"[…], time 14 day",19.5 pg
same,MCHC,"[…], time 14 day",32.6%
same,MCV,"[…], time 14 day",59.7 fL
same,Mono,"[…], time 14 day",2.2%
same,Neu,"[…], time 14 day",15.4%
same,PT,"[…], time 14 day",12.9 s
same,Plat,"[…], time 14 day",128 x10_4/uL
same,RBC,"[…], time 14 day",726.4 x10_4/ul
same,Ret,"[…], time 14 day",4.3%
same,WBC,"[…], time 14 day",110.4 x10_2/uL
same,APTT,"[…], time 28 day",19.4 s
same,Bas,"[…], time 28 day",0%
same,Eos,"[…], time 28 day",1.6%
same,Fbg,"[…], time 28 day",216.2 mg/dL
same,Hb,"[…], time 28 day",14.9 g/dL
same,Ht,"[…], time 28 day",43.2%
same,Lym,"[…], time 28 day",83.4%
same,MCH,"[…], time 28 day",19 pg
same,MCHC,"[…], time 28 day",34.4%
same,MCV,"[…], time 28 day",55.3 fL
same,Mono,"[…], time 28 day",2%
same,Neu,"[…], time 28 day",12.6%
same,PT,"[…], time 28 day",13.2 s
same,Plat,"[…], time 28 day",102.4 x10_4/uL
same,RBC,"[…], time 28 day",782 x10_4/ul
same,Ret,"[…], time 28 day",2.9%
same,WBC,"[…], time 28 day",177.7 x10_2/uL
same,KIDNEY_L,"[…], time 7 day",1.1 g
same,KIDNEY_R,"[…], time 7 day",1.1 g
same,KIDNEY_TOTAL,"[…], time 7 day",2.2 g
same,KIDNEY_L,"[…], time 14 day",1.2 g
same,KIDNEY_R,"[…], time 14 day",1.3 g
same,KIDNEY_TOTAL,"[…], time 14 day",2.5 g
same,KIDNEY_L,"[…], time 28 day",1.4 g
same,KIDNEY_R,"[…], time 28 day",1.4 g
same,KIDNEY_TOTAL,"[…], time 28 day",2.8 g
same,LIVER,"[…], time 7 day",12.9 g
same,LIVER,"[…], time 14 day",14.1 g
same,LIVER,"[…], time 28 day",16.4 g
same,A/G,"[…], time 7 day",1.4
same,ALP,"[…], time 7 day",1073 IU/L
same,ALT,"[…], time 7 day",38.4 IU/L
same,AST,"[…], time 7 day",72.2 IU/L
same,BUN,"[…], time 7 day",17 mg/dL
same,CRE,"[…], time 7 day",0.5 mg/dL
same,Ca,"[…], time 7 day",11 mg/dL
same,Cl,"[…], time 7 day",101.8 meq/L
same,DBIL,"[…], time 7 day",0.096 mg/dL
same,GLC,"[…], time 7 day",216 mg/dL
same,IP,"[…], time 7 day",7.9 mg/dL
same,K,"[…], time 7 day",4 meq/L
same,LDH,"[…], time 7 day",279.2 IU/L
same,Na,"[…], time 7 day",140.4 meq/L
same,PL,"[…], time 7 day",165.8 mg/dL
same,RALB,"[…], time 7 day",3.3 g/dL
same,TBIL,"[…], time 7 day",0.1 mg/dL
same,TC,"[…], time 7 day",79.4 mg/dL
same,TG,"[…], time 7 day",134.4 mg/dL
same,TP,"[…], time 7 day",5.6 g/dL
same,gamma-GTP,"[…], time 7 day",1.8 IU/L
same,A/G,"[…], time 14 day",1.4
same,ALP,"[…], time 14 day",808 IU/L
same,ALT,"[…], time 14 day",31.2 IU/L
same,AST,"[…], time 14 day",62.2 IU/L
same,BUN,"[…], time 14 day",19 mg/dL
same,CRE,"[…], time 14 day",0.4 mg/dL
same,Ca,"[…], time 14 day",10.7 mg/dL
same,Cl,"[…], time 14 day",101.8 meq/L
same,DBIL,"[…], time 14 day",0.1 mg/dL
same,GLC,"[…], time 14 day",213.4 mg/dL
same,IP,"[…], time 14 day",7.7 mg/dL
same,K,"[…], time 14 day",3.7 meq/L
same,LDH,"[…], time 14 day",186.8 IU/L
same,Na,"[…], time 14 day",141 meq/L
same,PL,"[…], time 14 day",165.6 mg/dL
same,RALB,"[…], time 14 day",3.4 g/dL
same,TBIL,"[…], time 14 day",0.2 mg/dL
same,TC,"[…], time 14 day",85.8 mg/dL
same,TG,"[…], time 14 day",111.2 mg/dL
same,TP,"[…], time 14 day",5.8 g/dL
same,gamma-GTP,"[…], time 14 day",1.8 IU/L
same,A/G,"[…], time 28 day",1.1
same,ALP,"[…], time 28 day",637.6 IU/L
same,ALT,"[…], time 28 day",40 IU/L
same,AST,"[…], time 28 day",66.6 IU/L
same,BUN,"[…], time 28 day",20.4 mg/dL
same,CRE,"[…], time 28 day",0.6 mg/dL
same,Ca,"[…], time 28 day",10.2 mg/dL
same,Cl,"[…], time 28 day",101 meq/L
same,DBIL,"[…], time 28 day",0.1 mg/dL
same,GLC,"[…], time 28 day",284 mg/dL
same,IP,"[…], time 28 day",8.1 mg/dL
same,K,"[…], time 28 day",3.5 meq/L
same,LDH,"[…], time 28 day",178.2 IU/L
same,Na,"[…], time 28 day",140 meq/L
same,PL,"[…], time 28 day",158.2 mg/dL
same,RALB,"[…], time 28 day",3.1 g/dL
same,TBIL,"[…], time 28 day",0.2 mg/dL
same,TC,"[…], time 28 day",77.8 mg/dL
same,TG,"[…], time 28 day",113.6 mg/dL
same,TP,"[…], time 28 day",5.9 g/dL
same,gamma-GTP,"[…], time 28 day",1.4 IU/L
